Like-named read-outs stand apart in the source and are kept apart here.
Experiments:
MCF-7 [1] = assay: MTT cytotoxicity assay, MCF-7; conditions: Homo sapiens, MCF7, 24 h, read-out: In vitro Cytotoxicity (IC50, μM) MCF-7
Text: (§1) Two human cancer cell lines, HepG2 (human hepatocellular carcinoma) and MCF-7 (human breast adenocarcinoma), were used to test the produced compounds' cytotoxic activities. […] HepG2 cells, a hepatocellular carcinoma model, are widely used for studying VEGF/VEGFR-2-mediated angiogenesis and tumor progression.[76,77] Thus, these models provided a relevant system for assessing the potential EGFR/VEGFR inhibitory effects of our synthesized compounds. Accordingly, provide complementary systems for assessing the multitarget inhibitory potential of the synthesized pyrazole–thiophene hybrids against EGFR- and VEGFR-2-mediated oncogenic pathways. […] The cytotoxic activity of the synthesized pyrazole–thiophene derivatives was initially evaluated against two standard human cancer cell lines: MCF-7 and HepG2, which are widely used in cytotoxicity screening using the 3-(4,5-dimethylthiazol-2-yl)-2,5-diphenyltetrazolium bromide (MTT) assay (SI data, S1).[81–84] […]
(§2) S1. Analysis of Cytotoxic Inhibitory Concentration 50 (IC 50) with respect to HepG2 and MCF-7 The cytotoxic activity of the synthesized compounds was evaluated against MCF-7 and HepG2 cell lines using the 3-(4,5-dimethylthiazol-2-yl)-2,5-diphenyltetrazolium bromide (MTT) assay 2-5.
(§3) 100 µg/mL streptomycin, then seeded in 96 -well plates (1 × 10⁴ cells/well) and incubated at 37 °C with 5% CO₂ for 48 h. Test compounds, prepared by serial dilutio n, were added for 24 h, after which 20 µL of MTT solution (5 mg/mL) was introduced and incubated for 4 h. Formazan crystals were dissolved […]
(§4) Cell viability was ca lculated relative to untreated controls, and IC₅₀ values were obtained from dose – response curves by nonlinear regression. […]

HepG2 [2] = assay: MTT cytotoxicity assay, HepG2; conditions: Homo sapiens, HepG2, 24 h, read-out: In vitro Cytotoxicity (IC50, μM) HepG2
Text: as §1, §2, §3, §4

wild-type EGFR = molecular target: T1, wild-type EGFR (Homo sapiens, UniProt P00533); assay: EGFR enzyme inhibition assay (wild type), Kinase-Glo kit; assay type: biochemical
T1 construct: purchased #40321
Method: (§5) Supporting Information (SI)
(§6) Formazan crystals were dissolved
(§7) response curves by nonlinear regression.
(§8) performed in 96 -well plates containing purified recombinant EGFR. Each we ll received 25 µL of
(§9) control). […] The reaction was initiated
(§10) After incubation, 50 µL of
(§11) min. Luminescence was then recorded using a microplate ELISA reader. Erlotinib served as t he
(§12) incubated for 5 min at room temperature.

EGFR mutant (T790M) = molecular target: T2, EGFR mutant (T790M) (Homo sapiens, UniProt P00533, T790M); assay: EGFR enzyme inhibition assay (mutant T790M), Kinase-Glo kit; assay type: biochemical
T2 construct: purchased #40323
Method: as §5, §6, §7, §8, §9, §10, §11, §12

VEGFR-2 = molecular target: T3, VEGFR-2 (Homo sapiens, UniProt P35968); assay: VEGFR-2 enzyme inhibition assay (HTScan Tyrosine Kinase Assay); assay type: biochemical
T3 construct: purchased Cell Signaling Technology #7788

MCF-7 cells [3] = assay: Cell cycle analysis by PI flow cytometry; assay type: cell-based, human; conditions: MCF-7, 10 µM, 48 h
Method: S3. Assessment of the Impact of Compound 14 on Cell Cycle Progression and Apoptosis in MCF - […]
MCF-7 breast cancer cells were seeded under standard culture conditions and treated with 10 µM of compound 14 for 48 h. After treatment, cells were harvested by trypsinization, washed with PBS, and fixed in ice-cold 66% ethanol at 4 °C for at least 2 h. Prior to analysis, cells were washed again with PBS and stained using the Propidium Iodide Flow Cytometry Kit ( ab139418, Abcam, UK) according to the manufacturer’s instructions. Staining was carried out with PI and RNase at 37 °C in the dark for 30 min. Cell cycle distribution (G0/G1, S, and G2/M phases) was then determined by measuring PI fluorescence intensity in the FL2 channel 8. […]

MCF-7 cells [4] = assay: Annexin V-FITC/PI apoptosis and necrosis assay; assay type: cell-based, human; conditions: MCF-7, 10 µM, 48 h
Method: Flow cytometric assay and the pro-apoptotic activity of compound 14 were assessed using the Annexin V-FITC Apoptosis Detection Kit (BioVision, USA; Cat. No. K101-25). The assay of compound 14 was performed in accordance with the reported procedure,[87,88] (SI data, S3). […]
The pro-apoptotic activity of compound 14 was assessed using the Annexin V -FITC Apoptosis Detection Kit (BioVision, USA; Cat. No. K101 -25) according to the manufacturer’s instructions.
MCF-7 cells (1–5 × 10⁵) were seeded and treated with 10 µM of 14 for 48 h. After treatment, both floating and adherent cells were collected by gentle trypsinization, washed with serum -containing medium, and resuspended in 500 µL of 1× Binding Buffer. Each sample was stained with 5 µL Annexin V-FITC and 5 µL propidium iodide (50 µg/mL) for 5 min at room temperature in the dark, then analyzed by flow cytometry. […]

MCF-7 [5] = conditions: reference drug value; read-out: In vitro Cytotoxicity (IC50, μM) MCF-7; cited from earlier work
HepG2 [6] = conditions: reference drug value; read-out: In vitro Cytotoxicity (IC50, μM) HepG2; cited from earlier work
[7] = test system: human pancreatic tumor (AsPC-1) and human glioblastoma (U251); parameters: method as in PMID 26492233; conditions: read-out: IC50 against AsPC-1 and U251; cited from earlier work

T1 sequence (P00533 25-1210): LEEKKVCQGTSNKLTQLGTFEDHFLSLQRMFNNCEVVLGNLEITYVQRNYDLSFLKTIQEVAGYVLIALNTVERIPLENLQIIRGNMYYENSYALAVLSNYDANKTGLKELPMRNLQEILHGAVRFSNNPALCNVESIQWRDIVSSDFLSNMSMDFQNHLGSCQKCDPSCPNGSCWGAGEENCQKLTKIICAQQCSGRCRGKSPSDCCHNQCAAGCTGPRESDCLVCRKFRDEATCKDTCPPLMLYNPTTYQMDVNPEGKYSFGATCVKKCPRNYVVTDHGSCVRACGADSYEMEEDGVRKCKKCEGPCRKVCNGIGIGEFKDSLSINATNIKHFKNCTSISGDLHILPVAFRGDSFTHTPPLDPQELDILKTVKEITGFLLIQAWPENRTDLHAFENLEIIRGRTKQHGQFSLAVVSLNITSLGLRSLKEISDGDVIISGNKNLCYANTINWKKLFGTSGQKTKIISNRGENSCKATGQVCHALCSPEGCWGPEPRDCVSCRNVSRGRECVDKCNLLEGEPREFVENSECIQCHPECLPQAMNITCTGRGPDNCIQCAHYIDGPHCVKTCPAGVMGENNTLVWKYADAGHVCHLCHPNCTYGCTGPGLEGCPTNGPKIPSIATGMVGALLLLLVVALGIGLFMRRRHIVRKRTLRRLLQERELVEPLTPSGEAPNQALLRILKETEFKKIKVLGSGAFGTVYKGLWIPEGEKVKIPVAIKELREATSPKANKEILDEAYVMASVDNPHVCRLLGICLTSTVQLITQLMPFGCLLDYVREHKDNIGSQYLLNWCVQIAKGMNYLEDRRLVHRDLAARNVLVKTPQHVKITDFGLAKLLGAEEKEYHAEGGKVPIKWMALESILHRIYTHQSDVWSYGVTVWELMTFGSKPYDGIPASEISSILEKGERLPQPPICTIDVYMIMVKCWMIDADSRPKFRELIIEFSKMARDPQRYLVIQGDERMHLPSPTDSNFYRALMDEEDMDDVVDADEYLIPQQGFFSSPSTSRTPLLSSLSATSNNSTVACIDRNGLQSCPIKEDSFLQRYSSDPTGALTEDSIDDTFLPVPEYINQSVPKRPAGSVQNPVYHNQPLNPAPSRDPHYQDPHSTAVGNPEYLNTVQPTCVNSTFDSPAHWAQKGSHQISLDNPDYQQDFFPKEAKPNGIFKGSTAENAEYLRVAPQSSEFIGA
T3 sequence (P35968 789-1356 limits assumed): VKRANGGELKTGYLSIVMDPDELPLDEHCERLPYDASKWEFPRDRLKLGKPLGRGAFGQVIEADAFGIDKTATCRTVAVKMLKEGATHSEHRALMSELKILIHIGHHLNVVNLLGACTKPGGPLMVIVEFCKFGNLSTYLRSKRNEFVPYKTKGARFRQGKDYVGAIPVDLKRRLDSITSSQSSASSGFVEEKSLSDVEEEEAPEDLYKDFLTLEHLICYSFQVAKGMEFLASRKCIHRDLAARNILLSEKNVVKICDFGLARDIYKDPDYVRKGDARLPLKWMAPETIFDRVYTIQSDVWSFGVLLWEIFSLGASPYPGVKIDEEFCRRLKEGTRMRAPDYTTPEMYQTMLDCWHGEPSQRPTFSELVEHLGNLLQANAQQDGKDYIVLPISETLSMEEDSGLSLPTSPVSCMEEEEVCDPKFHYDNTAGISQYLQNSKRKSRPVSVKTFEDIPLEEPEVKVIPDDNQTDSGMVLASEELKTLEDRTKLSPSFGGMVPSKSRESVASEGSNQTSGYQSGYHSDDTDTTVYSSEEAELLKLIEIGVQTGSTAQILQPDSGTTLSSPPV
T2 sequence (P00533 25-1210 T790M): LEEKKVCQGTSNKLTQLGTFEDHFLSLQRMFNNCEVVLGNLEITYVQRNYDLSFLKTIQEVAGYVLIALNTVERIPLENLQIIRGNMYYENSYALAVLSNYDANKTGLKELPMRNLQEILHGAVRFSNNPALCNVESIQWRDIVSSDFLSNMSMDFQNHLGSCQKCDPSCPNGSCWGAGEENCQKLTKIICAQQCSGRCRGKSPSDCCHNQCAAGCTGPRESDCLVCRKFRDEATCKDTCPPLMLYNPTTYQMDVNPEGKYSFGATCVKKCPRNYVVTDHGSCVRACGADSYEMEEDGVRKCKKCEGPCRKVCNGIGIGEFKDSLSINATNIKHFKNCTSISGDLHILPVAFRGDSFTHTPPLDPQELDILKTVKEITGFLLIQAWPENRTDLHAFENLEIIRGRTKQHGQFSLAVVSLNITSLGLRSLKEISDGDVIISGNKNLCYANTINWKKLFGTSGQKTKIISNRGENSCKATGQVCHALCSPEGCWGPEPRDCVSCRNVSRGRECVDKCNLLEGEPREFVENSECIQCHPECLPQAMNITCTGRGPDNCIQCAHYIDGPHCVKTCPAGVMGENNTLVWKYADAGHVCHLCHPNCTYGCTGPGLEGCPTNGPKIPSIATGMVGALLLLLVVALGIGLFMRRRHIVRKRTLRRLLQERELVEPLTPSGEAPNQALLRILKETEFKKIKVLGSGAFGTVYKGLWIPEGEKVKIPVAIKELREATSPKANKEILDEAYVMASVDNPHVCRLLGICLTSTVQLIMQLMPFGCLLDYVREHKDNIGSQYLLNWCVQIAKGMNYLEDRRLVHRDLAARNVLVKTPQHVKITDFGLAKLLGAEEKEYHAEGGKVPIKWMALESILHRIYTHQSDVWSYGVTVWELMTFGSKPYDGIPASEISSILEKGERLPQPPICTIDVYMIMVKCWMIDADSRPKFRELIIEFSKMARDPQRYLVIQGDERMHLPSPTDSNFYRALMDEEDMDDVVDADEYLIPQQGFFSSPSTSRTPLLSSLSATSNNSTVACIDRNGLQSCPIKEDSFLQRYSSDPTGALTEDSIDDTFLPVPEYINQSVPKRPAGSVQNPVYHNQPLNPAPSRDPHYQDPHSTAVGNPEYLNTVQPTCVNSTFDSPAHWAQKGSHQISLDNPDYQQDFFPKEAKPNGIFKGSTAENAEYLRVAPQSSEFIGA

Row | Structure (SMILES) | IC50 (MCF-7 [1]) [µM] | IC50 (HepG2 [2]) [µM] | also measured
1 | O=C(C=Cc1cccs1)c1ccc([N+](=O)[O-])cc1 [Compound 1, 1-(4-nitrophenyl)-3-(thiophen-2-yl)prop-2-en-1-one] | > 100 | 90.5 | 
2 | O=[N+]([O-])c1ccc(C2=NNC(c3cccs3)C2)cc1 (stereo not drawn) [Compound 2, 3-(4-nitrophenyl)-5-(thiophen-2-yl)-4,5-dihydro-1H-pyrazole] | 6.57 | 8.86 | IC50 (wild-type EGFR): 59.5 µM; IC50 (EGFR mutant (T790M)): 65.1 µM; IC50 (VEGFR-2): 889 µM
3 | CC(=O)N1N=C(c2ccc([N+](=O)[O-])cc2)CC1c1cccs1 (stereo not drawn) [Compound 3, 1-(3-(4-nitrophenyl)-5-(thiophen-2-yl)-4,5-dihydro-1H-pyrazol-1-yl) ethan-1-one] | 43.6 | 53.2 | 
4 | O=CN1N=C(c2ccc([N+](=O)[O-])cc2)CC1c1cccs1 (stereo not drawn) [Compound 4, 3-(4-nitrophenyl)-5-(thiophen-2-yl)-4,5-dihydro-1H-pyrazole-1-carbaldehyde] | 92.1 | 84 | 
5 | O=[N+]([O-])c1ccc(C2=Nc3ccccc3NC(c3cccs3)C2)cc1 (stereo not drawn) [Compound 5, 4-(4-nitrophenyl)-2-(thiophen-2-yl)-2,3-dihydro-1H-benzo[b][1,4] diazepine] | 75.5 | 62.6 | 
6 | N#Cc1c(-c2cccs2)cc(-c2ccc([N+](=O)[O-])cc2)[nH]c1=O [Compound 6, 6-(4-nitrophenyl)-2-oxo-4-(thiophen-2-yl)-1,2-dihydropyridine-3-carbonitrile] | 23.3 | 28.9 | 
7 | O=C(CCl)N1N=C(c2ccc([N+](=O)[O-])cc2)CC1c1cccs1 (stereo not drawn) [Compound 7, 2-chloro-1-(3-(4-nitrophenyl)-5-(thiophen-2-yl)-4,5-dihydro-1H-pyrazol-1-yl)ethan-1-one] | 75 | 78.1 | 
8 | O=C(O)c1ccccc1C(=O)N1N=C(c2ccc([N+](=O)[O-])cc2)CC1c1cccs1 (stereo not drawn) [Compound 8, 2-(3-(4-nitrophenyl)-5-(thiophen-2-yl)-4,5-dihydro-1H-pyrazole-1-carbonyl)benzoic acid] | 8.08 | 13.5 | IC50 (wild-type EGFR): 66.6 µM; IC50 (EGFR mutant (T790M)): 121 µM; IC50 (VEGFR-2): 85.1 µM
9 | O=C(O)CCC(=O)N1N=C(c2ccc([N+](=O)[O-])cc2)CC1c1cccs1 (stereo not drawn) [Compound 9, 4-(3-(4-nitrophenyl)-5-(thiophen-2-yl)-4,5-dihydro-1H-pyrazol-1-yl)-4-oxobutanoic acid] | 17.8 | 22.6 | 
10 | O=C(O)C=CC(=O)N1N=C(c2ccc([N+](=O)[O-])cc2)CC1c1cccs1 (stereo not drawn) [Compound 10, 4-(3-(4-nitrophenyl)-5-(thiophen-2-yl)-4,5-dihydro-1H-pyrazol-1-yl)-4-oxobut-2-enoic acid] | 32.6 | 36.4 | 
11 | O=[N+]([O-])c1ccc(C2=NN(CN3N=C(c4ccc([N+](=O)[O-])cc4)CC3c3cccs3)C(c3cccs3)C2)cc1 (stereo not drawn) [Compound 11, bis(3-(4-nitrophenyl)-5-(thiophen-2-yl)-4,5-dihydro-1H-pyrazol-1-yl)methane] | 87.4 | 74.2 | 
12 | COC(=O)/C=C(\C(=O)OC)N1N=C(c2ccc([N+](=O)[O-])cc2)CC1c1cccs1 (stereo not drawn) [Compound 12, dimethyl 2-(3-(4-nitrophenyl)-5-(thiophen-2-yl)-4,5-dihydro-1H-pyrazol-1-yl)maleate] | 51.7 | 59.3 | 
13 | O=C(O)n1nc(-c2ccc([N+](=O)[O-])cc2)cc1-c1cccs1 [Compound 13, 3-(4-nitrophenyl)-5-(thiophen-2-yl)-1H-pyrazole-1-carboxylic acid] | 37.1 | 41.4 | 
14 | CC(=O)C1C(c2ccc([N+](=O)[O-])cc2)=NN(C=O)C1c1cccs1 (stereo not drawn) [Compound 14, 4-Acetyl-3-(4-nitrophenyl)-5-(thiophen-2-yl)-4,5-dihydro-1H-pyrazole-1-carbaldehyde] | 12.9 | 19.6 | IC50 (wild-type EGFR): 47.6 µM; IC50 (EGFR mutant (T790M)): 48.3 µM; IC50 (VEGFR-2): 327 µM; Cell cycle analysis Comment (MCF-7 cells [3]): Cell cycle arrest at G1phase; Cell cycle analysis %G2/M (MCF-7 cells [3]; control 16.74%): 6.62%; Cell cycle analysis %S (MCF-7 cells [3]; control 27.95%): 19.22%; Cell cycle analysis %G0-G1 (MCF-7 cells [3]; control 55.31%): 74.16%; Apoptosis Late (MCF-7 cells [4]; control 0.14%): 7.1%; Apoptosis Early (MCF-7 cells [4]; control 0.69%): 15.02%; Necrosis (MCF-7 cells [4]; control 2.36%): 4.2%
15 | COc1cccc2c1C(=O)c1c(O)c3c(c(O)c1C2=O)C[C@@](O)(C(=O)CO)C[C@@H]3O[C@H]1C[C@H](N)[C@H](O)[C@H](C)O1 [Doxorubicin, doxorubicin, reference compound] |  | 4.5 | 
16 | C#Cc1cccc(Nc2ncnc3cc(OCCOC)c(OCCOC)cc23)c1 [Erlotinib, erlotinib] |  |  | IC50 (MCF-7 [5]): 8.2 µM; IC50 (HepG2 [6]): 7.73 µM
17 | Cc1ccc(-c2nnc(SCC(=O)N3N=C(c4cccs4)CC3c3ccc(Cl)cc3)o2)cc1 (stereo not drawn) [compound II] |  |  | IC50 [7]: 12 to 17 µM

From article PMC12541710, “Design, synthesis, and anticancer evaluation of novel pyrazole–thiophene hybrid derivatives as multitarget inhibitors of wild EGFR, mutant (T790M) EGFR, and VEGFR-2” (RSC Advances, 2025)
